The values below are quoted from earlier work in patent US10398709B2, “Compositions for the treatment of cataracts” (Catacore, Inc., priority 2015, dated 2019).

Molecules are shown by their SMILES.

Data set [1] relates to preformed protein aggregates (mutant crystallins). Particulars: both in vitro and in cell-transfection experiments.
The test system of data set [2] is dissected rabbit cataractous lenses. Particulars: dissected rabbit cataractous lenses in vitro.
In a further data set the test system is cataract. Particulars: in vivo in dogs.

`CC(C)=CCC[C@@H](C)[C@H]1CC[C@@]2(C)C3=C(CC[C@]12C)[C@@]1(C)CC[C@H](O)C(C)(C)[C@@H]1CC3` [lanosterol, 3β-hydroxy-8,24-lanostadiene]: the preformed protein aggregates result in data set [1] is “significantly decreased”. In addition, the “cataract severity and transparency” value in data set [2] was “reduce cataract severity and increase transparency”. Further, in the data set on cataract, the cataract severity result is listed as “reduce cataract severity”.
With `CC(C)CCC[C@@H](C)[C@H]1CC[C@H]2[C@@H]3CC=C4C[C@@H](O)CC[C@]4(C)[C@H]3CC[C@]12C` [cholesterol], in data set [1], the preformed protein aggregates result is “not”.
